Source: PMC9959130, “Effects of Side Chain and Peptide Bond Modifications on the Targeting Properties of Stabilized Minigastrin Analogs” (Pharmaceuticals, 2023)
Where two headings read alike, the source gives them in different places. One block for each compound: values may come before it.

Assays:
[1] = Metabolic studies in BALB/c mice (intact radiopeptide by radio-HPLC); format: in vivo; conditions: i.v., 2 nmol, 10 min p.i., two animals per peptide
Experimental: All animal experiments were approved by the Austrian Ministry of Science (BMWF-66.011/0075- WF/V/3b/2016) and performed in accordance with the Austrian Animal Protection Act. Metabolic studies characterizing the stability of selected radioligands against enzymatic degradation were carried out in 7 to 8 week old female BALB/c mice (Charles River, Sulzfeld, Germany). The mice (two animals for each peptide) were intravenously injected into a lateral tail vein with 5–10 MBq of the ^111In-labeled peptide derivatives, corresponding to 2 nmol total peptide. At the time point of 10 min p.i. the animals were euthanatized by cervical dislocation. A sample of urine and blood was immediately collected. Liver and kidneys were dissected, mixed with 20 mM HEPES buffer pH 7.3 (1:1, w/v) and homogenized using an Ultra-Turrax T8 homogenizer (IKA-Werke, Staufen, Germany) for 1 min. All samples taken were analyzed by analytical HPLC using the low-sensitivity loop for urine and the high-sensitivity loop for blood, liver and kidney. Before injection into the HPLC system, all samples except urine were treated with ACN and diluted with water as described for stability studies in human serum. The percentage of intact radiopeptide in the analyzed samples was calculated by integration of the different peaks found in the radiochromatogram using Chromeleon Dionex Software (Version 7.2.9.11323).

Complex stability in PBS = format: physicochemical; conditions: 1000 pmol/mL in PBS, room temperature, 4 h after incubation, n = 1
Experimental: In vitro stability studies were performed in human serum (n = 2). The radiolabeled peptides (1000 pmol/mL) were incubated at 37 °C and a sample of 100 μL was taken at 1, 4, and 24 h after incubation. After the precipitation of proteins with ACN at 1:1.5 (v/v), centrifugation (14,000 rpm, 2 min, centrifuge 5424, Eppendorf AG, Germany) and dilution with water at 1:1 (v/v), an aliquot of 100 μL of this solution was analyzed by HPLC. Radioligand breakdown was monitored and the percentage of intact radiopeptide was calculated using Chromeleon Dionex Software (Version 7.2.9.11323). Additionally, the radiolabeled peptides (1000 pmol/mL) were incubated in PBS (n = 1) at room temperature to confirm the complex stability as a control.

[2] = Biodistribution in BALB/c nude mice bearing A431-CCK2R/A431-mock xenografts; format: in vivo; conditions: female, mouse, iv, 20 pmol, total radioactivity, 20 pmol, gallium-68, 1 h p.i., mean ± SD n = 4; for tissue uptake at 1 h: xenografted BALB/c nude mice, i.v.; for tissue to tissue ratio at 1 h: BALB/c nude mice
Experimental: The overall biodistribution and tumor targeting properties of selected radiolabeled peptides were evaluated in female athymic BALB/c nude mice (Charles River, Sulzfeld, Germany, age of 7 to 9 weeks). After tumor induction with 2 × 10^6 A431-CCK2R or A431-mock cells (subcutaneously injected in 200 μL DMEM into the right and left flank) and a waiting period of 10–14 days (sufficient to achieve tumors of ∼0.25 g), mice were randomly divided into groups of four and treated with a bolus injection of 150 µL of the injectable solution containing the radiolabeled peptide via a lateral tail vein to achieve an injected radioactivity of 150–200 kBq and a total injected peptide amount of ~20 pmol (n = 4 for each radiopeptide). For DOTA-[(N-Me)1Nal^8]MGS5, additional biodistribution studies were performed with gallium-68 (~0.5 MBq, 20 pmol) and lutetium-177 (~0.5 MBq, 20 pmol). The animals were euthanatized by cervical dislocation at 1 h (gallium-68) or 4 h p.i. (indium-111/ lutetium-177). The tumors and other tissues (blood, lung, heart, muscle, spleen, intestine, liver, kidney, stomach, and pancreas) were dissected, weighed, and the radioactivity measured in the γ-counter. The rest of the body and a standard of the solution injected was also measured together with the collected samples. The percentage of injected activity per gram of tissue (% IA/g) and the tumor-to-organ activity ratio of selected tissues were calculated for each mouse and time point studied. Origin software (Microcal Origin 6.1, Northampton, MA, USA) was used for statistical analysis (independent t-test for two populations; significance level p < 0.05).

[3] = Distribution coefficient (LogD) in octanol/PBS; format: physicochemical; conditions: radiolabeled peptide (111In-labeled where the label names no radiometal); shake-flask octanol/PBS, 100 pmol/mL, 15 min shaking at 1500 rpm, γ-counter; mean ± SD, n = 8
Experimental: The distribution coefficient (LogD) in octanol/PBS was determined by mixing 0.5 mL of the radiolabeled DOTA peptides diluted in PBS (100 pmol/mL) and 0.5 mL octanol in a 1.5 mL microcentrifuge tube (n = 8). After shaking for 15 min (MS3 Basic, IKA, Staufen, Germany) at 1500 rpm and a waiting time of 10 min to ensure appropriate separation of the two phases, 100 µL aliquots of each phase were pipetted into 4.5 mL tubes. The tubes were measured using a γ-counter (2480 Wizard2 3″, PerkinElmer Life Sciences and Analytical Instruments, formerly Wallac Oy, Turku, Finland) and the LogD value was determined using following equation: LogD=Log(cpmoctanol phase/cpmPBS phase)

- Intact radiopeptide in kidney ([1]; kidney homogenate): 40.2 ± 4.1%
- Intact radiopeptide in liver ([1]; liver homogenate): 94.9 ± 2.8%
- Intact radiopeptide in blood [1]: 98.4 ± 0.1%
- Intact radiopeptide in urine [1]: 15.9 ± 3.4%
- Stability of the DOTA-complex in PBS (Complex stability in PBS): 96.2%
Structure (SMILES): CCCC[C@@H](C(=O)N[C@@H](CC(=O)O)C(=O)N(C)[C@@H](Cc1cccc2ccccc12)C(N)=O)N(C)C(=O)[C@H](Cc1c[nH]c2ccccc12)NC(=O)CNC(=O)[C@H](Cc1ccc(O)cc1)NC(=O)[C@H](C)NC(=O)[C@@H](CCC(=O)O)NC(=O)CN1CCN(CC(=O)O)CCN(CC(=O)O)CCN(CC(=O)O)CC1 [[^111In]In-DOTA-[(N-Me)1Nal^8]MGS5] [metal not drawn]

- Stability of the DOTA-complex in PBS (Complex stability in PBS): 99%
Structure (SMILES): CCCC[C@@H](C(=O)N[C@@H](CC(=O)O)C(=O)N(C)[C@@H](Cc1cccc2ccccc12)C(N)=O)N(C)C(=O)[C@H](Cc1c[nH]c2ccccc12)NC(=O)CNC(=O)[C@H](Cc1ccc(O)cc1)NC(=O)[C@H](C)NC(=O)[C@@H](CCC(=O)O)NC(=O)CN1CCN(CC(=O)O)CCN(CC(=O)O)CCN(CC(=O)O)CC1 [[^177Lu]Lu-DOTA-[(N-Me)1Nal^8]MGS5] [metal not drawn]

- tissue uptake at 1 h ([2]; BALB/c nude, heart, read-out: Uptake in heart): 0.95 ± 0.32 %ID/g
- tissue uptake at 1 h ([2]; BALB/c nude, intestine, read-out: Uptake in intestine): 0.82 ± 0.18 %ID/g
- tissue uptake at 1 h ([2]; BALB/c nude, lung, read-out: Uptake in lung): 1.61 ± 0.42 %ID/g
- tissue uptake at 1 h ([2]; BALB/c nude, muscle, read-out: Uptake in muscle): 0.45 ± 0.08 %ID/g
- tissue uptake at 1 h ([2]; BALB/c nude, spleen, read-out: Uptake in spleen): 1.19 ± 0.25 %ID/g
- tissue to tissue ratio at 1 h ([2]; athymic BALB/c nude, A431-CCK2R xenograft / blood, A431-CCK2R xenograft, read-out: tumor-to-organ ratio: blood): 6.03 ± 2.26
- tissue to tissue ratio at 1 h ([2]; athymic BALB/c nude, A431-CCK2R xenograft / kidney, A431-CCK2R xenograft, read-out: tumor-to-organ ratio: kidney): 2.36 ± 1.14
- tissue to tissue ratio at 1 h ([2]; athymic BALB/c nude, A431-CCK2R xenograft / stomach, A431-CCK2R xenograft, read-out: tumor-to-organ ratio: stomach): 10.2 ± 3.5
- tissue uptake at 1 h ([2]; athymic BALB/c nude, A431-CCK2R xenograft, read-out: Uptake in A431-CCK2R xenograft): 15.7 ± 2.21 %ID/g
- tissue uptake at 1 h ([2]; athymic BALB/c nude, A431-mock xenograft, read-out: Uptake in A431-mock xenograft): 1.51 ± 0.98 %ID/g
- tissue uptake at 1 h ([2]; athymic BALB/c nude, blood, read-out: Uptake in blood): 2.82 ± 0.88 %ID/g
- tissue uptake at 1 h ([2]; athymic BALB/c nude, kidneys, read-out: Uptake in kidneys): 7.7 ± 3.1 %ID/g
- tissue uptake at 1 h ([2]; athymic BALB/c nude, liver, read-out: Uptake in liver): 2.25 ± 0.55 %ID/g
- tissue uptake at 1 h ([2]; athymic BALB/c nude, pancreas, read-out: Uptake in pancreas): 0.87 ± 0.29 %ID/g
- tissue uptake at 1 h ([2]; athymic BALB/c nude, stomach, read-out: Uptake in stomach): 1.63 ± 0.41 %ID/g
- LogD [3]: −2.2 ± 0.1
- Stability of the DOTA-complex in PBS (Complex stability in PBS): 99.2%
Structure (SMILES): CCCC[C@@H](C(=O)N[C@@H](CC(=O)O)C(=O)N(C)[C@@H](Cc1cccc2ccccc12)C(N)=O)N(C)C(=O)[C@H](Cc1c[nH]c2ccccc12)NC(=O)CNC(=O)[C@H](Cc1ccc(O)cc1)NC(=O)[C@H](C)NC(=O)[C@@H](CCC(=O)O)NC(=O)CN1CCN(CC(=O)O)CCN(CC(=O)O)CCN(CC(=O)O)CC1 [[^68Ga]Ga-DOTA-[(N-Me)1Nal^8]MGS5, metal not drawn]
